Laboratory results reported in US11813332B2, “Photosensitizer-peptide conjugate comprising degradable linker, and composition for photodynamic diagnosis or treatment comprising same” (NATIONAL CANCER CENTER, priority 2016, dated 2023).
Residues, ends and D or L forms follow the SMILES beside them. *: point of attachment. X1 = C=Cc1c(C)c2cc3nc(c(C)c4nc(cc5[nH]c(cc1[nH]2)c(C)c5CC)C(C)=C4C(=O)O)[C@@H](CCC(=O)*)[C@@H]3C

Key:
HCC70 cells [1] = assay: Real-time observation of fluorescence quenching and recovery without washing (live cell imaging); assay type: cell-based, human; details: no washing, images over 4 hours
Procedure: An experiment was conducted to verify whether a C-EGFR conjugate of the present invention in which fluorescence signal generation has been quenched from outside the target cell strongly generates fluorescence after the absorption of the C-EGFR conjugate into target cells. EGFR-overexpressing HCC70 cells were treated with the C-EGFR conjugate and free photosensitizer (Ce4), and then fluorescence images were obtained at regular time intervals without washing. The detailed method is provided as follows.
The existing medium was then replaced with 0.5 ml of fresh medium including the conjugate and the free photosensitizer. Thereafter, each of the near infrared light fluorescence images (λEx. 640±15 nm, λEm. 690±25 nm) were obtained at intervals of 15 minutes for 4 hours using the Live Cell Imaging System (Axio Observer Z1, Carl Zeiss, Germany) without washing the cells.

HCC70 cells [2] = details: 0~10 μM, dark
Procedure: In the dark state without light, the C-EGFR conjugate of the present invention was treated with 0˜10 μM concentration in HCC70 cells and cytotoxicity was evaluated.

PCA-SMC cells [3] = assay: Photodynamic therapy efficacy, CCK-8 assay after 670 nm laser; assay type: cell-based, human; details: 10 μM, 4 h treatment, washed
Procedure: In order to evaluate the efficacy of photodynamic therapy, PCA-SMC cells were put in a 1×10^3/well and MDA-MB-231 cells and MDA-MB-468 cells were put as much as 1×10^4/well in a 96-well plate, respectively, and were cultured for 24 hours to allow the cells to be adhered well. L-EGFR conjugates were prepared at concentrations of 0.1 μM, 0.5 μM, 1 μM, 2 μM, 5 μM and 10 μM, respectively, treated with cells, and then cultured for 4 hours. Thereafter, the conjugate that had not been absorbed into cells was washed and removed, and then irradiated with a 670 nm laser at an irradiation dose density of 50 mW/cm^2 for 6 minutes and 40 seconds. Thereafter, after further culturing in an incubator until the next day, the cytotoxicity was assessed by CCK-8 assay.

PCA-SMC cells [4] = assay: Cell absorption and fluorescence activity, confocal laser microscope; assay type: cell-based, human; details: 2 μM, 4 hours
Procedure: (§1) Thereafter, the existing medium was replaced with 200 μl of a fresh medium in which 2 μM the conjugate was dissolved, and the cells were cultured for 30 minutes, 1 hour, and 4 hours, respectively.

[5] = Fluorescence recovery by reducing agent (DTT) treatment; details: 5 mM DTT; for Increase of fluorescence intensity by DTT treatment: 4 hours, conjugate 2 μM in PBS, λEx 400 nm, λEm 665 nm
Procedure: The increase of fluorescence and reactive oxygen generation by reducing agent treatment was analyzed.
In the dithiothreitol (DTT) treatment sample, which is a reducing agent, 2 μM of a conjugate was mixed with 2 μM and 5 mM DTT, and the same amount of phosphate-buffered saline (PBS) was added to the buffer-treated group. The fluorescent intensity of the mixed solution (200 μl) was measured at intervals of 30 minutes for 4 hours (λEx. 400 nm, λEm. 665 nm).
Fluorescence recovery of the conjugate thus obtained by the reaction in response to a reducing agent present in a high concentration in cancer cells was performed and analyzed in the same manner as in Example 2. On the other hand, a sample prepared by dilution was put into a multifunctional microplate reader to obtain fluorescence spectrum (λEx. 400 nm, λEm. 620˜850 nm) results.
Meanwhile, in order to analyze the reactivity of the reducing agent/enzyme complex reaction type Ce4-CRRCW conjugate to the reducing agent, the conjugate was treated with reducing agents DTT 2 μM and 5 mM for 6 hours and put into a multifunctional microplate reader to obtain the fluorescence spectrum (λEx. 400 nm, λEm. 620˜850 nm) results. In order to analyze the reactivity to the enzyme, the conjugate was treated with cathepsins B, S, L, and S, or cathepsin B pretreated with cathepsin inhibitor E64 for 6 hours and put into a multifunctional microplate reader to obtain the fluorescence spectrum (λEx. 400 nm, λEm. 620˜850 nm) results. In order to analyze the reducing agent/enzyme complex reaction, 5 mM DTT and cathepsin B enzyme were treated together for 6 hours and put into a multifunctional microplate reader to obtain the fluorescence spectrum (λEx. 400 nm, λEm. 620˜850 nm) results.

HCC70 cells [6] = assay: Cell absorption and fluorescence activity, confocal laser microscope; assay type: cell-based, human; details: 2 μM, 4 hours
Source text: In the 8-well Lab-Tek chamber, 5×10^3 PCA-SMC cells and 5×10^4 HCC70 cells were put in each well.

[7] = Singlet oxygen generation (SOSG) under 670 nm laser after DTT treatment; details: for Increase of singlet oxygen generation: 5 mM DTT, 4 hours, 670 nm laser 50 mW/cm^2; for Generation of singlet oxygen in the quenched state: DTT not treated or 2 μM DTT
Procedure: Singlet oxygen generation (SOG) was measured by the following method. The C-EGFR conjugate thus obtained was dissolved in PBS to be 2 μM, and then DTT-treated samples were mixed with 2 μM and 5 mM DTT, respectively, and the same amount of PBS was mixed in the buffer-treated group. The mixed solution (200 μl) was cultured at 37° C. for 4 hours. Subsequently, oxygen-saturated PBS including concentrated singlet oxygen sensor green (SOSG) was mixed and the final SOSG concentration was adjusted to 5 μM. Fluorescence intensity change of the SOSG was periodically measured using a 670 nm continuous wavelength laser device during the light irradiation (light irradiation dose: 50 mW/cm^2) of the sample.
In addition, in order to confirm the generation of singlet oxygen (SOG), the same method as in Example 2 was performed and analyzed.

KB cells = details: 2 μM
Procedure: KB cells per well were put in a 4-well Lab-Tek chamber per 2×10^5, and were cultured for 24 hours to allow the cells to be absorbed well. Thereafter, the existing medium was replaced with 500 μl of fresh medium in which the Ce4-RRW conjugate (2 μM) was dissolved, and then the cells were cultured for 4 hours.
Finally, the cells were washed three times with the culture medium, and then a near-infrared fluorescence image (λEx. 405 nm, λEm. 625˜754 nm) was obtained using a confocal laser microscope.
Experiments were performed to determine the intracellular location of the Ce4-RRW of the present invention. In the 8-well Lab-Tek chamber, 5×10^4 KB cells were put in each well. The cells were cultured for 24 hours to allow the cells to be absorbed well, and then 2 μM Ce4-RRW was added and cultured for 4 hours, followed by washing three times. Thereafter, after replacing the existing medium with fresh medium including 100 nM LysoTracker Blue DND-22 dye, the cells were cultured for 45 minutes. Fluorescent images of the Ce4-RRW (λEx. 405 nm, λEm. 625˜754 nm) and LysoTracker (λEx. 405 nm, λEm. 411˜497 nm) were obtained for these samples using confocal microscopy.

[8] = 2 μM, PBS including 10% FBS, room temperature, 4 hours
Procedure: The L-EGFR conjugate of the present invention was mixed with PBS including 10% […], fetal bovine serum (FBS, Gibco, USA), respectively, and cultured, and the stability in the serum was evaluated. The final concentration of the conjugate in solution was adjusted to 2 μM. The solution was allowed to react at room temperature for 4 hours and then put in a multifunctional microplate reader (Safire 2, Tecan, Switzerland) to obtain a fluorescence spectrum (λEx. 400 nm) result.
The Ce4-RRW conjugate of the present invention was mixed with PBS including 10% of FBS and cultured to evaluate the stability in serum. The final concentration of the conjugate in solution was adjusted to 2 μM. The solution was allowed to react at room temperature for 4 hours and then put in a multifunctional microplate reader to obtain a fluorescence spectrum (λEx. 610 nm, λEm. 620˜850 nm) result.

trypsin enzyme = details: after 4 hours, 37° C., PBS, λEm 665 nm
Procedure: 1 nmol of each of Ce4-RRWW and Ce4-RRWWW thus obtained was prepared and dissolved in a PBS solution. The trypsin enzyme was mixed with each […] of each conjugate and fluorescence changes were observed over time at 37° C.

MDA-MB-468 cells [9] = assay: Cell absorption and fluorescence activity, confocal laser microscope; assay type: cell-based, human; details: 2 μM
Procedure: as §1
L-EGFR conjugate was treated at a concentration of 2 μM and was cultured for 4 hours, followed by washing three times.

MDA-MB-468 cells [10] = details: 0~10 μM, dark
Procedure: In the dark state without light, the L-EGFR conjugate of the present invention was added to MDA-MB-468 cells at a concentration of 0˜10 μM and cytotoxicity was evaluated.

MDA-MB-231 cells = assay: Cell absorption and fluorescence activity, confocal laser microscope; assay type: cell-based, human; details: 2 μM
Procedure: as §1

| Compound | Fluorescence image without washing (HCC70 cells [1]) | Cells alive after photodynamic therapy (PCA-SMC cells [3]) | Intracellular fluorescence signal / cell entry (PCA-SMC cells [4]) | Increase of fluorescence intensity by DTT treatment [5] | Increase of singlet oxygen generation [7] | Generation of singlet oxygen in the quenched state [7] | Effect of serum protein on fluorescence of the conjugate [8] | Increase of fluorescence versus initial fluorescence after trypsin treatment (trypsin enzyme) | further results |
| --- | --- | --- | --- | --- | --- | --- | --- | --- | --- |
| chlorin e4 [free photosensitizer, reference compound] | position of cancer cells cannot be distinguished |  |  |  |  |  |  |  |  |
| C=Cc1c(C)c2cc3nc(c(C)c4[nH]c(cc5nc(cc1[nH]2)C(C)=C5CC)c(C)c4C(=O)O)[C@@H](CCC(=O)NCCOCCOCC(=O)N[C@H]1CSSC[C@@H](C(=O)N[C@@H](Cc2ccc(O)cc2)C(=O)N[C@@H](Cc2c[nH]cn2)C(=O)N[C@@H](Cc2c[nH]c4ccccc24)C(=O)N[C@@H](Cc2ccc(O)cc2)C(=O)NCC(=O)N[C@@H](Cc2ccc(O)cc2)C(=O)N[C@H](C(=O)N2CCC[C@H]2C(=O)N[C@@H](CCC(N)=O)C(=O)N[C@@H](CC(N)=O)C(=O)N[C@H](C(=O)N[C@H](C(=O)O)[C@@H](C)CC)C(C)C)[C@@H](C)O)NC1=O)[C@@H]3C [C-EGFR] | fluorescence signal generation is inhibited from outside the cell | at least 70% | fluorescence signals were hardly exhibited | 3.4 times | 5 times | inhibited |  |  | Cytotoxicity without light irradiation (HCC70 cells [2]): did not show cytotoxicity; Time to fluorescence recovery after the start of the reaction [5]: ≤ 30 min; Intracellular fluorescence signal (HCC70 cells [6]): strong fluorescence signals; Intracellular location (LysoTracker co-staining) (HCC70 cells [6]): migrated into the lysosomes |
| C=Cc1c(C)c2cc3nc(c(C)c4nc(cc5[nH]c(cc1[nH]2)c(C)c5CC)C(C)=C4C(=O)O)[C@@H](CCC(=O)N[C@@H](CCCNC(=N)N)C(=O)N[C@@H](CCCNC(=N)N)C(=O)N[C@@H](Cc1c[nH]c2ccccc12)C(=O)O)[C@@H]3C [Ce4-RRW] |  |  |  |  |  |  | did not affect the fluorescence |  | Intracellular fluorescence signal (KB cells): strong fluorescence signal; Intracellular location (LysoTracker co-staining) (KB cells; 4 hours): located in the lysosome |
| C=Cc1c(C)c2cc3nc(c(C)c4nc(cc5[nH]c(cc1[nH]2)c(C)c5CC)C(C)=C4C(=O)O)[C@@H](CCC(=O)N[C@@H](CCCNC(=N)N)C(=O)N[C@@H](CCCNC(=N)N)C(=O)N[C@@H](Cc1c[nH]c2ccccc12)C(=O)N[C@@H](Cc1c[nH]c2ccccc12)C(=O)N[C@@H](Cc1c[nH]c2ccccc12)C(=O)O)[C@@H]3C [Ce4-RRWWW] (X1-RRWWW-OH) |  |  |  |  |  |  |  | 4.3 times |  |
| C=Cc1c(C)c2cc3nc(c(C)c4[nH]c(cc5nc(cc1[nH]2)C(C)=C5CC)c(C)c4C(=O)O)[C@@H](CCC(=O)NCCOCCOCC(=O)N[C@@H](CSSC[C@H](N)C(=O)N[C@@H](Cc1ccc(O)cc1)C(=O)N[C@@H](Cc1c[nH]cn1)C(=O)N[C@@H](Cc1c[nH]c2ccccc12)C(=O)N[C@@H](Cc1ccc(O)cc1)C(=O)NCC(=O)N[C@@H](Cc1ccc(O)cc1)C(=O)N[C@H](C(=O)N1CCC[C@H]1C(=O)N[C@@H](CCC(N)=O)C(=O)N[C@@H](CC(N)=O)C(=O)N[C@H](C(=O)N[C@H](C(=O)O)[C@@H](C)CC)C(C)C)[C@@H](C)O)C(=O)O)[C@@H]3C [L-EGFR] |  | at least 70% | did not enter the cell even after culturing for 4 hours | 2.5 times | 2 times | suppressed | did not affect the fluorescence intensity |  | Fluorescence signal (MDA-MB-468 cells [9]; 30 minutes): strong fluorescence signal on the cell surface; Intracellular location (LysoTracker co-staining) (MDA-MB-468 cells [9]; 4 hours): activated in the lysosome; Cytotoxicity without light irradiation (MDA-MB-468 cells [10]): did not show cytotoxicity; Intracellular fluorescence signal with culture time (MDA-MB-231 cells; 30 minutes to 4 hours): fluorescence intensity was increased with increasing culture time; Intracellular fluorescence signal (MDA-MB-231 cells; first 30 minutes): fluorescence was almost not observed; Fluorescence recovered within 5 minutes after the start of the reaction [5]: at least 90% |
| C=Cc1c(C)c2cc3nc(c(C)c4nc(cc5[nH]c(cc1[nH]2)c(C)c5CC)C(C)=C4C(=O)O)[C@@H](CCC(=O)N[C@@H](CCCNC(=N)N)C(=O)N[C@@H](CCCNC(=N)N)C(=O)N[C@@H](Cc1c[nH]c2ccccc12)C(=O)N[C@@H](Cc1c[nH]c2ccccc12)C(=O)O)[C@@H]3C [Ce4-RRWW] |  |  |  |  |  |  |  | about 1.6 times |  |
